Legend:
[1] = target: T1, ArgP (Escherichia coli, UniProt P0A8S1); assay: L-arginine induction of ArgP-mediated GFP expression in yeast; assay type: cell-based; details: 30 mM L-arginine
T1 construct: expressed in transfected cells; host or cells: Saccharomyces cerevisiae CEN.PK113-5A; REV1p or TDH3p, chromosomal integration (TISNO-66/-73)
Method: (§1) Events were analyzed using FlowJo software (TreeStar Inc.).
(§2) The genetic device developed in this study represents to the best of our knowledge the first example of transplanting a prokaryotic transcriptional activator into a eukaryotic chassis and successfully using it to activate gene expression without the need for modifying the protein beyond codon optimization. […] To test the generality of the biosensor design for onboarding other small-molecule binding transcriptional activators as biosensors in yeast we selected four other candidates from the LTTR family; FdeR from Herbaspirillum seropedicae, PcaQ from Sinorhizobium meliloti, ArgP from Escherichia coli, and MdcR from Klebsiella pneumonia, with co-inducers naringenin, protocatechuic acid (PCA), L-arginine, and malonic acid, respectively. In this proof-of-principle study we selected the four candidates based on a minimal set of information, including knowledge about operator sequences, experimental evidence for ligand-inducible control of target operons, and their mode-of-action within native chassis (ie. activation, FIG. 1). Furthermore all of these metabolites can passively diffuse across the yeast plasma membrane, with the exception of malonic acid, which requires the expression of the dicarboxylic acid transporter MAE1 from Schizosaccharomyces pombe. […]

[2] = tested on: MdcR; assay: Malonic acid induction of MdcR-mediated GFP expression in yeast; assay type: cell-based; details: MdcR from TDH3 promoter, MAE1 transporter; 10 mM malonic acid
Method: as §1, §2

[3] = tested on: FdeR; assay: Naringenin induction of FdeR-mediated GFP expression in yeast; assay type: cell-based, Saccharomyces cerevisiae
Source text: Strains, chemicals and media. Saccharomyces cerevisiae CEN.PK102-5B (MATa ura3-52 his3Δ1 leu2-3/112 MAL2-8^c SUC2), CEN.PK113-5A (MATa, trp1 his3Δ1 leu2-3/112 MAL2-8^c SUC2) and CEN.PK113-7D (wild type, MATa MAL2-8^c SUC2) strains were obtained from Peter Kotter (Johann Wolfgang Goethe-University Frankfurt, Germany). In principal any other yeast strains may be used, such as one obtained from public repository EuroScarf. EasyClone plasmids used in this work are described in Jensen, N. B. et al. EasyClone: method for iterative chromosomal integration of multiple genes in Saccharomyces cerevisiae. FEMS Yeast Res. 14, 238-48 (2014). Escherichia coli strain DH5a was used as a host for cloning and plasmid propagation. The chemicals and Pfu TURBO DNA polymerase were commercially obtained (Sigma-Aldrich and Agilent Technologies Inc., respectively). All acids used were >97% in purity. S. cerevisiae cells were grown at 30° C. in synthetic complete medium as well as drop-out media and agar plates were prepared using pre-mixed drop-out powders (Sigma-Aldrich). Mineral medium was freshly prepared as described previously. For all media containing diacids, 1.4 mM of the individual diacids were dissolved in mineral medium and pH adjusted to 4.5 before sterile filtration. For CCM several dilutions were made to examine the performance of the CCM biosensor. For naringenin, mineral medium was supplemented with 0, 0.05, 0.10 or 0.20 mM naringenin, dissolved in ethanol, the final ethanol concentration for each medium was 2% (v/v), and the final pH of the medium was adjusted to 6.0. E. coli cells were grown at 37° C. in Luria-Bertani (LB) medium supplemented with 100 μg/mL ampicillin.
as §1
The genetic device developed in this study represents to the best of our knowledge the first example of transplanting a prokaryotic transcriptional activator into a eukaryotic chassis and successfully using it to activate gene expression without the need for modifying the protein beyond codon optimization. […]

[4] = Solubility in growth medium; assay type: physicochemical; details: aqueous buffer, read-out: concentrations of naringenin soluble in growth medium
[5] = tested on: 209 bp_CYC1p_T1 promoter; assay: LTTR-mediated activation of GFP expression from 209 bp_CYC1p_T1 reporter promoter in yeast, without ligand; assay type: cell-based, Saccharomyces cerevisiae; details: LTTR expressed from weak REV1p promoter
Method: as §1, §2

[6] = tested on: 209 bp_CYC1p_T1 promoter with MdcO or ArgO; assay: Cross-reactivity of LTTRs ArgP and MdcR with operators MdcO and ArgO (flow cytometry); assay type: cell-based, Saccharomyces cerevisiae; details: ArgP and MdcR with 209 bp_CYC1p_T1 carrying MdcO or ArgO
Source text: Many of the characterized LTTRs regulate operons by binding prototypic LTTR box patterns 5′-T-N11-A-3′ and 5′-TTA-N7/8-GAA-3′. In addition to transcriptional orthogonality (FIG. 3b), we therefore further tested if individual LTTRs would cross-react with operators for another LTTR. For this purpose, we expressed LTTRs ArgP and MdcR together with the 209 bp_CYC1p_T1 promoter with operators for MdcR (herein MdcO) or ArgP (herein ArgO) driving the expression of GFP. As controls we tested GFP expression from 209 bp_CYC1p_T1 promoter with MdcO or ArgO without expression of LTTRs. […] This is in agreement with another study on cross-reactivity between promoter and transcriptional regulators of the TetR family, and the fact that LTTR residues in both the conserved N-terminal DNA-binding domains and the divergent EBDs are important for DNA-binding.

[7] = tested on: yeast transcriptome; assay: Transcriptome analysis (RNA-seq) of yeast with or without BenM^H110R, F211V, Y286N; assay type: cell-based, Saccharomyces cerevisiae; details: 24 h cultivation in the presence of CCM
Method: To study the impact of ligand-induced BenM on genome-wide gene expression, triplicate cultures of strains MeLS0138 and MeLS0284 were grown for 24 h at 30° C. in 50 ml mineral medium pH 4.5 with 1.4 mM CCM. […] Briefly, 15 ml samples of the six cultures were harvested into a pre-chilled 50 ml tube with crushed ice and then immediately centrifuged at 4° C., 4000×rpm for 5 min. Subsequently, the pellets were resuspended in 2 ml of RNAlater® Solution (Ambion, Life Technologies) and incubated on ice for 1 h. Next, cells were pelleted by centrifugation (12,000×rpm for 10 s) and transferred to liquid nitrogen, and stored at −80° C. until further analysis. Total RNA extraction was performed using RNeasy® Mini Kit (QIAGEN). […] The quantity and quality of the RNA samples were measured using Qubit 2.0 Fluorometer using the Qubit RNA BR Assay (Thermo Fisher Scientific) and Agilent 2100 Bioanalyzer using the RNA 6000 Nano Kit (Agilent Technologies), respectively. For sequencing we used 3 μg of total RNA as input for TruSeq® Stranded mRNA Sample Preparation kit prior to sequencing on the MiSeq System using MiSeq Reagent Kit v3 150 cycles at a 2×75 bp read length configuration (Illumina) obtaining 38 M reads. […]

With N=C(N)NCCC[C@H](N)C(=O)O [L-arginine] the “ligand-inducible increase in GFP expression” value ([1]; ArgP expression controlled by REV1p) was “significant ligand-inducible increase in GFP expression” and the “induction of GFP expression upon addition of cognate inducer” value (“induction … of cognate inducer” for short) ([1]; ArgP from TDH3 promoter) was “further induce GFP expression”.

In the case of O=C(O)CC(=O)O [malonic acid], the “induction … of cognate inducer” value [2] is reported as “further induce GFP expression”.

For O=C1C[C@@H](c2ccc(O)cc2)Oc2cc(O)cc(O)c21 [naringenin], the “induction … of cognate inducer” value ([3]; FdeR from TDH3 promoter, 0.2 mM naringenin) was “further induce GFP expression”, the “maximum increase in GFP expression” value ([3]; FdeR from strong TDH3 promoter, 0.2 mM naringenin, 24 h) was 1.7 fold and the “induction of GFP expression” value ([3]; FdeR from weak REV1 promoter, any of the tested naringenin concentrations) was “did not support induction of GFP expression”. It also gave a solubility [4] of less than 200 µM.

B1: ArgP: LTTR transcriptional activator from Escherichia coli, co-inducer L-arginine (protein, UniProt P0A8S1 1-297, looked up)
HTH-type transcriptional …: MKRPDYRTLQALDAVIRERGFERAAQKLCITQSAVSQRIKQLENMFGQPLLVRTVPPRPTEQGQKLLALLRQVELLEEEWLGDEQTGSTPLLLSLAVNADSLATWLLPALAPVLADSPIRLNLQVEDETRTQERLRRGEVVGAVSIQHQALPSCLVDKLGALDYLFVSSKPFAEKYFPNGVTRSALLKAPVVAFDHLDDMHQAFLQQNFDLPPGSVPCHIVNSSEAFVQLARQGTTCCMIPHLQIEKELASGELIDLTPGLFQRRMLYWHRFAPESRMMRKVTDALLDYGHKVLRQD
With B1 the “activation of GFP expression compared to yeast cells without expression of an LTTR” value [5] was 2.2 × and the “cross-reaction of LTTR with operator for another LTTR” value [6] was “specificity between LTTR transcriptional activators and their inferred operator”.

B2: BenM^H110R, F211V, Y286N (protein, UniProt O68014 1-304, looked up, variant H110R F211V Y286N)
HTH-type transcriptional …: MELRHLRYFVAVVEEQSFTKAADKLCIAQPPLSRQIQNLEEELGIQLLERGSRPVKTTPEGHFFYQYAIKLLSNVDQMVSMTKRIASVEKTIRIGFVGSLLFGLLPRIIRLYRQAHPNLRIELYEMGTKAQTEALKEGRIDAGFGRLKISDPAIKRTLLRNERLMVAVHASHPLNQMKDKGVHLNDLIDEKILLYPSSPKPNFSTHVMNIVSDHGLEPTKINEVREVQLALGLVAAGEGISLVPASTQSIQLFNLSYVPLLDPDAITPIYIAVRNMEESTYIYSLNETIRQIYAYEGFTEPPNW
In the case of B2, the “average GFP transcript abundance, strain MeLS0284 compared to strain MeLS0138” value [7] is reported as “approximately 27 fold” and the “decrease in expression level of TCS3” value ([7]; P<0.05, >2-fold cut-off) is reported as 2.3 ×.
